Source: US5629332A, “Triazole compound and use thereof” (Nihon Nohyaku Co., Ltd., priority 1994, dated 1997)

Legend:
[1] = system: Candida albicans IFO 1270; test: growth inhibition of Candida albicans IFO 1270 in culture (Test Example 1, Table 2); format: cell-based; conditions: 37° C., Sabouraud's glucose broth; for Growth inhibition ratio (%) 0.1 μg/ml / inhibition of growth at 0.1 µg/mL: final compound concentration 0.1 μg/ml; for Growth inhibition ratio (%) 0.1 μg/ml / Growth inhibition ratio (%) 10 μg/ml: 48 hrs; for Growth inhibition ratio (%) 10 μg/ml / inhibition of growth at 10 µg/mL: final compound concentration 10 μg/ml; for inhibition of growth at 0.1 µg/mL / inhibition of growth at 10 µg/mL: Candida albicans, IFO1270, 48 h; for inhibition of growth at 0.1 µg/mL: read-out: Growth inhibition ratio (%) 0.1 μg/ml; for inhibition of growth at 10 µg/mL: read-out: Growth inhibition ratio (%) 10 μg/ml
Experimental: A 0.1 ml portion of a cell suspension of Candida albicans IFO 1270 (1.0×10^7 cells/ml) and a 0.1 ml portion of each test compound dissolved in dimethylsulfoxide were added to 9.8 ml of Sabouraudp's glucose broth.
Final compound concentrations in the culture were 10 μg/ml or 0.1 μg/ml. After incubation On a reciprocal shaker at 37° C. for 48 hrs, growth inhibition ratio of each test compound was measured.

[2] = system: C. albicans IFO 1270; test: survival of mice after intravenous inoculation with C. albicans, oral treatment (Test Example 2, Table 3); format: in vivo; conditions: 10 mg/kg orally once a day for 3 consecutive days, 10 days after inoculation, male ddy mice; for responders at 10 mg/kg: Candida albicans, IFO1270, po, 240 h, read-out: Survival ratio (%)
Experimental: Male ddy mice at six weeks of age were divided into a control group of 10 animals and drug administration groups of 5 animals each.
Subculture was carried out at 37° C. for 24 hrs Sabouraudp's glucose agar (manufactured by Difco laboratory).
A cell suspension of C. albicans IFO 1270 (2.5×10^7 cells/ml) was intravenously inoculated in an amount of 4 ml/kg, and each test compound was orally administered in a dose of 10 mg/kg once a day for 3 consecutive days. Examination of survival ratio was carried out 10 days after the inoculation of fungi.

Compound	Growth inhibition ratio (%) 0.1 μg/ml [1] [%]	Growth inhibition ratio (%) 10 μg/ml [1] [%]	Survival ratio (%) [2] [%]	inhibition of growth at 0.1 µg/mL [1] [%]	inhibition of growth at 10 µg/mL [1] [%]	responders at 10 mg/kg [2] [%]
2-(2,4-difluorophenyl)-2-[1-methyl-2-(4-fluorophenyl)-ethyl]-1-triazolyl-2-ethanol [compound 11]	45	74	60			
CC(=O)N1CCN(c2ccc(OC[C@H]3CO[C@](Cn4ccnc4)(c4ccc(Cl)cc4Cl)O3)cc2)CC1 (relative stereo) [Control drug A, cis1-acetyl-4-[4-[[2-(2,4-dichlorophenyl)-2-(imidazol-1-ylmethyl)-1,3-dioolan-4-yl]methoxy]phenyl]piperazine, reference compound]				59	77	20
CC(Cc1ccc(C#N)cc1)C(O)(Cn1cncn1)c1ccc(F)cc1F (single isomer, unassigned) [compound 8, 1-triazolyl-2-(2,4-difluorophenyl)-3-methyl-4-(4-cyanophenyl)-2-butanol]				59	78	100
CC(Cc1ccc(F)cc1)C(O)(Cn1cncn1)c1ccc(F)cc1F (centres unmarked) [Compound No. 1]				71	85	80
CC(Cc1ccc(OC(F)(F)F)cc1)C(O)(Cn1cncn1)c1ccc(F)cc1F (centres unmarked) [Compound No. 10]						100
CC(CCCc1ccc(Cl)cc1)C(O)(Cn1cncn1)c1ccc(F)cc1F (centres unmarked) [compound 2]				60	76	80
CC(CCCc1ccc(Cl)cc1)C(O)(Cn1cncn1)c1ccc(F)cc1F (centres unmarked) [compound 3]	58	74	60			
CC(CSc1ccc(F)cc1)C(O)(Cn1cncn1)c1ccc(F)cc1 (centres unmarked) [compound 4, 1-triazolyl-2-(4-fluorophenyl)-3-methyl-4-(4-fluorophenyl)-mercapto-2-butanol]				6	72	0
CC(CSc1nccn1C)C(O)(Cn1cncn1)c1ccc(F)cc1 (centres unmarked) [compound 5]				5	10	0
CC(Cc1ccc(C#N)cc1)C(O)(Cn1cncn1)c1ccc(F)cc1F (centres unmarked) [compound 7, 1-triazolyl-2-(2,4-difluorophenyl)-3-methyl-4-(4-cyanophenyl)-2-butanol]				53	74	100
CC(Cn1cncn1)C(O)(Cn1cncn1)c1ccc(F)cc1 (centres unmarked) [compound 14]				2	20	20
CC(Cc1ccc(-n2cncn2)cc1)C(O)(Cn1cncn1)c1ccc(F)cc1F (centres unmarked) [compound 15]			100	53	66	
CC(Cc1ccc(-n2cncn2)cc1)C(O)(Cn1cncn1)c1ccc(F)cc1F (centres unmarked) [compound 16]			100			
CC(Cc1ccc(-n2cncn2)cc1)C(O)(Cn1cncn1)c1ccc(F)cc1F (centres unmarked) [compound 17]			60			
CC(Cc1cccnc1)C(O)(Cn1cncn1)c1ccc(F)cc1F (centres unmarked) [compound 18]						40
CC(Cc1ccc(Cl)cc1SC(F)F)C(O)(Cn1cncn1)c1ccc(F)cc1F (centres unmarked) [compound 20]				53	68	100
CC(Cc1ccc([N+](=O)[O-])cc1)C(O)(Cn1cncn1)c1ccc(F)cc1F (centres unmarked) [compound 22]				58	70	100
CC(CCc1ccc(F)cc1)C(O)(Cn1cncn1)c1ccc(F)cc1F (centres unmarked) [compound 25]				60	70	
CC(Cc1ccc(C=NNC=O)cc1)C(O)(Cn1cncn1)c1ccc(F)cc1F (centres unmarked) [compound 27]						40
CC(Cc1ccc(Cl)cc1Cl)C(O)(Cn1cncn1)c1ccc(F)cc1F (centres unmarked) [compound 28]						100
CC(Cc1ccc(S(C)(=O)=O)cc1)C(O)(Cn1cncn1)c1ccc(F)cc1F (centres unmarked) [compound 30]				6	63	100
CC(Cc1ccc(-n2cnn(C)c2=O)cc1)C(O)(Cn1cncn1)c1ccc(F)cc1F (centres unmarked) [compound 31]						80
CC(Cc1ccc(F)cc1F)C(O)(Cn1cncn1)c1ccc(F)cc1F (centres unmarked) [compound 32]						80
CC(CCc1ccc(C#N)cc1)C(O)(Cn1cncn1)c1ccc(F)cc1F (centres unmarked) [compound 35]				60	74	
CC(CCc1ccc(-n2cncn2)cc1)C(O)(Cn1cncn1)c1ccc(F)cc1F (centres unmarked) [compound 37, 2-(2,4-difluorophenyl)-3-methyl-5-(4-triazolphenyl)-1-triazolyl-pentan-2-ol]						80
CSc1cc(Cl)ccc1CC(C)C(O)(Cn1cncn1)c1ccc(F)cc1F (centres unmarked) [compound 39]				53	68	100
CC(Cc1ccc(C(F)(F)F)cc1)C(O)(Cn1cncn1)c1ccc(F)cc1F (centres unmarked) [compound 43]						100
